Data from US11339193B2, “CDP protein secretion inhibitors” (KEZAR LIFE SCIENCES, priority 2018, dated 2022).
Numbered stars: 1 amine (or outer) side, 2 acyl side, 3 side chain; on linkers, the order of the positions; unused ones are H or OH. Square brackets hold non-standard residues; d marks the D form. Peptide text beside a SMILES is read from it. Butanoyl(2R-oxy,4-CN) = N#CCC[C@@H](O)C(=O)O; X22 = CCCC[C@@H](C)C[C@H](N[*:1])C(=O)[*:2]; Abu(4,4,4-F3) = N[C@@H](CC(F)(F)F)C(=O)O; NMeAla(cPent) = CN[C@@H](CC1CCCC1)C(=O)O; X12 = O=C([C@H](CC1=CCCC1)N[*:1])[*:2]; Ala(cPent) = N[C@@H](CC1CCCC1)C(=O)O; NMeCha = CN[C@@H](CC1CCCCC1)C(=O)O; NMeF = CN[C@@H](Cc1ccccc1)C(=O)O; aIle = CC[C@@H](C)[C@H](N)C(=O)O; tBuAla = CC(C)(C)C[C@H](N)C(=O)O; NMeL = CN[C@@H](CC(C)C)C(=O)O; NMeA = CN[C@@H](C)C(=O)O; Nva = CCC[C@H](N)C(=O)O; dLac = C[C@@H](O)C(=O)O

What was measured:
Assay type in all cases: cell-based
[1] = tested on: NCI-H929 multiple myeloma cell line; test: H929 assay (cell viability, Celltiter-Glo); details: Homo sapiens, NCI-H929; 48 hours, cell viability; read-out: H929 EC50
Procedure: The human multiple myeloma cell line NCI-H929 was cultured in Advanced RPMI 1640 media (Gibco@) supplemented with 6% fetal bovine serum, 2 mM Glutamine, and 1× Penicillin/Streptomycin. On the day of assay, cells were resuspended in RPMI 1640 media supplemented with 10% fetal bovine serum, 2 mM Glutamine, and 1× Penicillin/Streptmycin and plated in 384-well tissue culture plates and treated with compound dilutions in DMSO/media. Plates were incubated at 37° C., 5% CO2 for 48 hours. After 48 hours, Celltiter-Glo@ (Promega) was added to each well and luciferase signal was quantified using Tecan Infinite M1000 Pro for cell viability determination.

[2] = tested on: TNFα-FL/Gaussia Luciferase; test: Dox induced TNFα-FL-Gluc assay; details: Flp-In 293 T-REx cells, doxycycline, 24 hours; read-out: TNFa FL Gluc IC50
Text: Dox Induced TNFα-FL-Gluc Assay
(§1) Flp-In 293 T-REx™ cells were transfected with pcDNA™5/FRT/TO plasmid inserted with cDNA encoding Gaussia Luciferase fused to the 3′ end of cDNA encoding full length TNFα (amino acids 1-233). Transfected cells were selected for resistance to the selectable markers Hygromycin and Blasticidin to create a stable cell line that contained the TNFα-FL/Gaussia Luciferase cDNA insert whose expression was regulated under the T-REx™ system. The day before assay, cells were trypsinized and plated in 384-well tissue culture plates. The next day, compound dilutions in DMSO/media containing doxycycline were added to the wells and incubated at 37° C., 5% CO2.

[3] = tested on: PD1-ss+10aa/Gaussia Luciferase; test: Dox induced PD1-ss-Gluc assay; details: Flp-In 293 T-REx cells, doxycycline, 24 hours; read-out: PD1ss Gluc IC50
Text: Dox Induced PD1-ss-Gluc Assay
as §1, with “PD1 signal sequence plus 10 amino” for “full length TNFα (amino”, “(N-[…]-C) (SEQ ID NO:3).” for “1-233).”, “PD1-ss+10aa/Gaussia” for “TNFα-FL/Gaussia”

EC50 [1] [µM] | IC50 [2] [µM] | IC50 [3] [µM] | SMILES
4.06 | 0.779 | 0.46 | CCCC[C@@H](C)C[C@@H]1NC(=O)[C@@H](C)OC(=O)[C@H](C)N(C)C(=O)[C@H](C(C)C)NC(=O)[C@H](Cc2ccccc2)N(C)C(=O)[C@H](CC(C)C)NC(=O)[C@H](CC(C)C)N(C)C1=O [C-02] (HELM PEPTIDE1{L.[meF].V.[meA].[C[C@@H](O[*:1])C(=O)[*:2]].[CCCC[C@@H](C)C[C@H](N[*:1])C(=O)[*:2]].[meL]}$PEPTIDE1,PEPTIDE1,1:R1-7:R2$$$V2.0)
8.8 | 2.8 | 1.04 | CC(C)C[C@@H]1NC(=O)[C@H](Cc2ccc3ccccc3c2)N(C)C(=O)[C@H](CC(C)C)NC(=O)[C@H](CC(C)C)N(C)C(=O)[C@H](CC(C)C)NC(=O)[C@@H](CCC#N)OC(=O)[C@H](C)N(C)C1=O [C-66] (HELM PEPTIDE1{L.[CN([C@@H](Cc1ccc2ccccc2c1)C(=O)[*:2])[*:1]].L.[meA].[N#CCC[C@@H](O[*:1])C(=O)[*:2]].L.[meL]}$PEPTIDE1,PEPTIDE1,1:R1-7:R2$$$V2.0)
0.953 | 0.088 | 0.066 | CCCC[C@@H](C)C[C@@H]1NC(=O)[C@H](CC2=CCCC2)N(C)C(=O)[C@H](CC(C)C)NC(=O)[C@H](CC(C)C)N(C)C(=O)[C@H](C[C@H](C)CCCC)NC(=O)[C@@H](CCC#N)OC(=O)[C@H](C)N(C)C1=O [C-23]
2.37 | 0.376 | 0.297 | CCCC[C@@H](C)C[C@@H]1NC(=O)[C@@H](CCC#N)OC(=O)[C@H](C)N(C)C(=O)[C@H](CC)NC(=O)[C@H](Cc2ccccc2)N(C)C(=O)[C@H](CC(C)C)NC(=O)[C@H](CC(C)C)N(C)C1=O [C-25] (HELM PEPTIDE1{[Abu].[meA].[N#CCC[C@@H](O[*:1])C(=O)[*:2]].[CCCC[C@@H](C)C[C@H](N[*:1])C(=O)[*:2]].[meL].L.[meF]}$PEPTIDE1,PEPTIDE1,1:R1-7:R2$$$V2.0)
5.55 | 1.26 | 0.656 | CCCC[C@@H](C)C[C@@H]1NC(=O)[C@H](Cc2ccccc2)N(C)C(=O)[C@H](CC(C)C)NC(=O)[C@H](CC(C)C)N(C)C(=O)[C@H](C(C)C)NC(=O)[C@@H](C)OC(=O)[C@H](C)N(C)C1=O [C-07] (HELM PEPTIDE1{L.[meF].[CCCC[C@@H](C)C[C@H](N[*:1])C(=O)[*:2]].[meA].[C[C@@H](O[*:1])C(=O)[*:2]].V.[meL]}$PEPTIDE1,PEPTIDE1,1:R1-7:R2$$$V2.0)
6.71 |  |  | CCCC[C@@H](C)C[C@@H]1NC(=O)[C@H](Cc2ccccc2)N(C)C(=O)[C@H](CC(C)C)NC(=O)[C@H](CC(C)C)N(C)C(=O)[C@H](CC)NC(=O)[C@@H](C)OC(=O)[C@H](C)N(C)C1=O [C-06] (HELM PEPTIDE1{[Abu].[meL].L.[meF].[CCCC[C@@H](C)C[C@H](N[*:1])C(=O)[*:2]].[meA].[C[C@@H](O[*:1])C(=O)[*:2]]}$PEPTIDE1,PEPTIDE1,1:R1-7:R2$$$V2.0)
1.26 | 0.104 | 0.086 | CCCC[C@@H](C)C[C@@H]1NC(=O)[C@H](Cc2ccccc2)N(C)C(=O)[C@H](CCC)NC(=O)[C@H](CC(C)C)N(C)C(=O)[C@H](C[C@H](C)CCCC)NC(=O)[C@@H](C)OC(=O)[C@H](C)N(C)C1=O [C-04] (cyclo([NMeA][dLac][X22][NMeL][Nva][NMeF][X22]))
0.95 | 0.236 | 0.115 | CCCC[C@@H](C)C[C@@H]1NC(=O)[C@H](CC2CCCC2)N(C)C(=O)[C@H](CC(C)C)NC(=O)[C@H](CC(C)C)N(C)C(=O)[C@H](C[C@H](C)CCCC)NC(=O)[C@@H](CCC#N)OC(=O)[C@H](C)N(C)C1=O [C-22] (cyclo(L[NMeAla(cPent)][X22][NMeA][Butanoyl(2R-oxy,4-CN)][X22][NMeL]))
6.96 | 1.13 | 0.367 | CCCC[C@@H](C)C[C@@H]1NC(=O)[C@H](CC2CCCCC2)N(C)C(=O)[C@H](CC(C)C)NC(=O)[C@H](CC(C)C)N(C)C(=O)[C@H](CC2CCCC2)NC(=O)[C@@H](CCC#N)OC(=O)[C@H](C)N(C)C1=O [C-47] (cyclo([Ala(cPent)][NMeL]L[NMeCha][X22][NMeA][Butanoyl(2R-oxy,4-CN)]))
4.46 | 0.526 | 0.36 | CCCC[C@@H](C)C[C@@H]1NC(=O)[C@H](Cc2ccccc2)N(C)C(=O)[C@H](CC(C)C)NC(=O)[C@H](CC(C)C)N(C)C(=O)[C@H](CC(C)C)NC(=O)[C@@H](C)OC(=O)[C@H](C)N(C)C1=O [C-08] (HELM PEPTIDE1{L.[meF].[CCCC[C@@H](C)C[C@H](N[*:1])C(=O)[*:2]].[meA].[C[C@@H](O[*:1])C(=O)[*:2]].L.[meL]}$PEPTIDE1,PEPTIDE1,1:R1-7:R2$$$V2.0)
 | 5.73 | 0.751 | CCCC[C@@H](C)C[C@@H]1NC(=O)[C@H](CC2CCCCC2)N(C)C(=O)[C@H](CC(C)C)NC(=O)[C@H](CC(C)C)N(C)C(=O)[C@H](CC(C)(C)C)NC(=O)C(CCC#N)OC(=O)[C@H](C)N(C)C1=O (stereo in doubt) [C-52]
1.82 | 0.158 | 0.114 | CCCC[C@@H](C)C[C@@H]1NC(=O)[C@H](Cc2ccccc2)N(C)C(=O)[C@H](CC(C)C)NC(=O)[C@H](CC(C)C)N(C)C(=O)[C@H](CC(F)(F)F)NC(=O)[C@@H](CCC#N)OC(=O)[C@H](C)N(C)C1=O [C-09] (cyclo(L[NMeF][X22][NMeA][Butanoyl(2R-oxy,4-CN)][Abu(4,4,4-F3)][NMeL]))
1.87 | 0.464 | 0.119 | CCCC[C@@H](C)C[C@@H]1NC(=O)[C@H](CC2CCCCC2)N(C)C(=O)[C@H](CC(C)C)NC(=O)[C@H](CC(C)C)N(C)C(=O)[C@H](CC2=CCCC2)NC(=O)[C@@H](CCC#N)OC(=O)[C@H](C)N(C)C1=O [C-55] (cyclo(L[NMeCha][X22][NMeA][Butanoyl(2R-oxy,4-CN)][X12][NMeL]))
5.15 | 1.39 | 0.374 | CCCC[C@@H](C)C[C@@H]1NC(=O)[C@H](CC2CCCCC2)N(C)C(=O)[C@H](CC(C)C)NC(=O)[C@H](CC(C)C)N(C)C(=O)[C@H](CCC)NC(=O)[C@@H](CCC#N)OC(=O)[C@H](C)N(C)C1=O [C-19] (cyclo(L[NMeCha][X22][NMeA][Butanoyl(2R-oxy,4-CN)][Nva][NMeL]))
 |  | 2.14 | CCCC[C@@H](C)C[C@@H]1NC(=O)[C@H](CC2CCCCC2)N(C)C(=O)[C@H](CC2CCCC2)NC(=O)[C@H](CC(C)C)N(C)C(=O)[C@H](CC(C)C)NC(=O)[C@@H](CCC#N)OC(=O)[C@H](C)N(C)C1=O [C-54] (cyclo([Ala(cPent)][NMeCha][X22][NMeA][Butanoyl(2R-oxy,4-CN)]L[NMeL]))
 |  | 3.05 | CCCC[C@@H](C)C[C@@H]1NC(=O)[C@H](CC2CCCCC2)N(C)C(=O)[C@H](CC(C)(C)C)NC(=O)[C@H](CC(C)C)N(C)C(=O)[C@H](CC(C)C)NC(=O)[C@@H](CCC#N)OC(=O)[C@H](C)N(C)C1=O [C-63] (cyclo(L[NMeL][tBuAla][NMeCha][X22][NMeA][Butanoyl(2R-oxy,4-CN)]))
11.2 |  | 1.05 | CC(C)C[C@@H]1NC(=O)[C@H](Cc2nc(C(C)(C)C)cs2)N(C)C(=O)[C@H](CC(C)C)NC(=O)[C@H](CC(C)C)N(C)C(=O)[C@H](CC(C)C)NC(=O)[C@@H](CCC#N)OC(=O)[C@H](C)N(C)C1=O [C-68] (HELM PEPTIDE1{L.[meA].[N#CCC[C@@H](O[*:1])C(=O)[*:2]].L.[meL].L.[CN([C@@H](Cc1nc(C(C)(C)C)cs1)C(=O)[*:2])[*:1]]}$PEPTIDE1,PEPTIDE1,1:R1-7:R2$$$V2.0)

SMILES | EC50 [1] [µM] | IC50 [2] [µM] | IC50 [3] [µM]
CCCC[C@@H](C)C[C@@H]1NC(=O)[C@H](CC2CCCCC2)N(C)C(=O)[C@H](CC(C)C)NC(=O)[C@H](CC(C)C)N(C)C(=O)[C@H]([C@H](C)CC)NC(=O)[C@@H](CCC#N)OC(=O)[C@H](C)N(C)C1=O [C-62] (cyclo(L[NMeCha][X22][NMeA][Butanoyl(2R-oxy,4-CN)][aIle][NMeL])) | 4.22 | 1.66 | 0.277
CCCC[C@@H](C)C[C@@H]1NC(=O)[C@H](CC2CCCCC2)N(C)C(=O)[C@H](CC(C)C)NC(=O)[C@H](CC(C)C)N(C)C(=O)[C@H]([C@@H](C)CC)NC(=O)[C@@H](CCC#N)OC(=O)[C@H](C)N(C)C1=O [C-61] (cyclo(I[NMeL]L[NMeCha][X22][NMeA][Butanoyl(2R-oxy,4-CN)])) | 4.56 | 1.89 | 0.392
CCCC[C@@H](C)C[C@@H]1NC(=O)[C@H](Cc2ccccc2)N(C)C(=O)[C@H](CC(C)C)NC(=O)[C@H](CC(C)C)N(C)C(=O)[C@H](CC(F)(F)F)NC(=O)[C@@H](C)OC(=O)[C@H](C)N(C)C1=O [C-03] (cyclo(L[NMeF][X22][NMeA][dLac][Abu(4,4,4-F3)][NMeL])) | 5.07 | 0.525 | 0.385
